Source: patent US8354548B2, “Glycine chroman-6-sulfonamides for use as inhibitors of diacylglycerol lipase” (priority 2010, dated 2013)
pIC50: −log10 of the molar value. Like-named read-outs stand apart in the source and are kept apart here.

Molecular target: T1, LG586 enzyme (Homo sapiens, UniProt Q9Y4D2)
T1 sequence (Q9Y4D2 1-1042): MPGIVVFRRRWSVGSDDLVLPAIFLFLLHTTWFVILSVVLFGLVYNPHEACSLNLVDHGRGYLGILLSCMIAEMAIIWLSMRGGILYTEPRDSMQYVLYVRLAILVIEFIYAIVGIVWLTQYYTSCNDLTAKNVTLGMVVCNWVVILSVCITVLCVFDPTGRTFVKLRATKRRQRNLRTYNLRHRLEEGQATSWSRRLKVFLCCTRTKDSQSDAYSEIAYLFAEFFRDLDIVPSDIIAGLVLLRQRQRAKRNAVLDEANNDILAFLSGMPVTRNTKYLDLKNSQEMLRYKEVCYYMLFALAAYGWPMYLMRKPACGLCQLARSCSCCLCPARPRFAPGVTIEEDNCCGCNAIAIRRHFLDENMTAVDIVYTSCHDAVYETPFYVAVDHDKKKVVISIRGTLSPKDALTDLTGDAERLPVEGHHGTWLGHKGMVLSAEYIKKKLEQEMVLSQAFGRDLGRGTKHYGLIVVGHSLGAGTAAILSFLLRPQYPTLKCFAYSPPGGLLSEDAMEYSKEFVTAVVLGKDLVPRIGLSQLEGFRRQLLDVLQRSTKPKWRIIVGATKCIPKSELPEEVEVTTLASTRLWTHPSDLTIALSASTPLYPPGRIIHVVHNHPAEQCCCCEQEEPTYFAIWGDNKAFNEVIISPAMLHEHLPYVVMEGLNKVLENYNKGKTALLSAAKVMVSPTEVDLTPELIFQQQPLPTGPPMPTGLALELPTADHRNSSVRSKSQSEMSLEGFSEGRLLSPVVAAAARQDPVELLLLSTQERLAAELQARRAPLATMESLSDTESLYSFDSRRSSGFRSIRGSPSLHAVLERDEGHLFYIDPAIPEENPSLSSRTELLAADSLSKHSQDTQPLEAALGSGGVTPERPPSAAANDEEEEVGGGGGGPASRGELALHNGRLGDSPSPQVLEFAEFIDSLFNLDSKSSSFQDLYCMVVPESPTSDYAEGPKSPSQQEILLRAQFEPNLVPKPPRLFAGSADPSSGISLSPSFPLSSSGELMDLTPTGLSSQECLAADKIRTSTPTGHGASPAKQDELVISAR
Type: biochemical
Conditions: LG586 membrane prep, 250 μM PNP substrate, 10 min preincubation
Description: Black non-binding surface Corning plates (3655) were spotted with 0.9 μL of compound in twenty point 1:3 dilutions. The same volume of dimethyl sulfoxide (DMSO) was added to column 23 of the plate.
A membrane prep from a stable HEK cell line expressing LG586 was prepared by the Cell Resource Group at BMS in Hopewell, N.J. The protein concentration of the membrane prep was 1.28 μg/μL. […] For the assay, membrane was thawed to room temperature and then added to the assay buffer, 100 mM HEPES in MQ water at pH 7.5. The concentration of the LG586 enzyme in the assay is 0.005 μg/mL.
The substrate used in this assay was purchased from Sigma (N9876) p-nitrophenyl butyrate (PNP). The substrate is received in the liquid form and must be diluted with DMSO. […] The final concentration of the substrate is 250 μM.
Enzyme was added to the plates 80 μL/well using a Multi-drop Combi (Thermo). The plates were incubated with the compound for 10 minutes at room temperature. Then 9 μL of substrate was added to each well and the plates were immediately read on the Viewlux Imager (Perkin Elmer) in absorbance mode with the excitation filter of 405 nm and emission filter of 564/250 nm. The read was kinetic, plates were read once every 30 seconds for 5 minutes and then slopes were calculated for each well and the data was reduced with in-house software.

2-(2,2-dimethyl-N-(4-(naphthalen-1-yl)benzyl)chroman-6-sulfonamido)acetic acid [Example 23]
pIC50 (read-out: Data Range*): 7.00 to 8.70 | pIC50 (read-out: LE_LG586PNP_DR (IC50)): 8.52
